According to PMC6352954, “Benzylamides and piperazinoarylamides of ibuprofen as fatty acid amide hydrolase inhibitors” (Journal of Enzyme Inhibition and Medicinal Chemistry, 2019):
pIC50: −log10 of the molar value. Blank lines part the entries; values can stand above or below the molecule they belong to.

What was measured:
FAAH [1] = molecular target: T1, FAAH (Rattus norvegicus, UniProt P97612); assay: FAAH assay: inhibition of rat brain [3H]AEA hydrolysis; conditions: for FAAH inhibitory activity (in words): 0.5 μM [3H]AEA, rat brain homogenates
T1 sequence (P97612 1-579): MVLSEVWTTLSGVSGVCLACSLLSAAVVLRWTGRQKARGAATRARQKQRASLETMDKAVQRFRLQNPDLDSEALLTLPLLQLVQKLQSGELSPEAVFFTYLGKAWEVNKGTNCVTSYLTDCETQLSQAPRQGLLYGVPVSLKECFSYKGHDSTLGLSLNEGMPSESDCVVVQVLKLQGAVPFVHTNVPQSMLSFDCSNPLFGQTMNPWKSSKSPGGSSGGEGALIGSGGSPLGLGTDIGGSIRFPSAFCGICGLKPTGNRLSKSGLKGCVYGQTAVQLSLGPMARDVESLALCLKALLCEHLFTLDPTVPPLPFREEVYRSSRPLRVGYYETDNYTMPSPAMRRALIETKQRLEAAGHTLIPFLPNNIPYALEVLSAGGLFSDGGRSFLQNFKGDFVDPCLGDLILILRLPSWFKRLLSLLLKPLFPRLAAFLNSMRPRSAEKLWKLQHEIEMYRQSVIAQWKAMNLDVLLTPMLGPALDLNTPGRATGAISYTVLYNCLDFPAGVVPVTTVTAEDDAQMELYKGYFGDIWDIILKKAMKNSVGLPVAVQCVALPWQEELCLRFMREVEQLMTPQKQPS

FAAH [2] = molecular target: T1, FAAH; conditions: cited from earlier work
[3] = set-up: method as in PMID 12767601; conditions: cited from earlier work

SMILES: CC(C)Cc1ccc(C(C)C(=O)NCc2ccc(Cl)cc2Cl)cc1 (centres unmarked) [Compound 14, N-(2,4-Dichlorobenzyl)-2–(4-isobutylphenyl)propanamide]
pIC50 (FAAH [1]): 4.68

SMILES: CC(C)Cc1ccc(C(C)C(=O)NCc2ccccc2Cl)cc1 (centres unmarked) [Compound 11, N-(2-Chlorobenzyl)-2–(4-isobutylphenyl)propanamide]
pIC50 (FAAH [1]): 5.39

SMILES: Cc1cccnc1NC(=O)[C@@H](C)c1ccc(CC(C)C)cc1 [(S)-IbuAM5]
FAAH inhibitory activity of (S)-enantiomer relative to (R)-enantiomer (FAAH [2]): 10 fold

SMILES: CC(C)Cc1ccc(C(C)C(=O)NCc2c(Cl)cccc2Cl)cc1 (centres unmarked) [Compound 16, N-(2,6-Dichlorobenzyl)-2–(4-isobutylphenyl)propanamide]
FAAH inhibitory activity (in words) (FAAH [1]): complete loss of activity
melting point: 130 to 135 °C

SMILES: Cc1cccnc1NC(=O)C(C)c1ccc(CC(C)C)cc1 (centres unmarked) [Ibu-AM5]
potency as reversible FAAH inhibitor relative to ibuprofen (FAAH [2]): two to three orders of magnitude more potent than ibuprofen
ulcerogenic potency relative to ibuprofen [3]: much lower ulcerogenic potency than ibuprofen

SMILES: CC(C)Cc1ccc(C(C)C(=O)NCc2cc(Cl)ccc2Cl)cc1 (centres unmarked) [Compound 15, N-(2,5-Dichlorobenzyl)-2–(4-isobutylphenyl)propanamide]
pIC50 (FAAH [1]): 5.36

Further lines, results first:

FAAH inhibitory activity (in words) (FAAH [1]): loss of activity
SMILES: Cc1ccccc1N1CCN(C(=O)C(C)c2ccc(CC(C)C)cc2)CC1 (centres unmarked) [Compound 27, 2–(4-Isobutylphenyl)-1–(4-(o-tolyl)piperazin-1-yl)propan-1-one]

loss of FAAH inhibitory activity relative to amide 19 (FAAH [1]; 3,4-dichlorophenyl versus 3-chlorophenyl analogue): 10 fold
SMILES: CC(C)Cc1ccc(C(C)C(=O)N2CCN(c3ccc(Cl)c(Cl)c3)CC2)cc1 (centres unmarked) [Compound 21, 1–(4-(3,4-Dichlorophenyl)piperazin-1-yl)-2–(4-isobutylphenyl)propan-1-one]

pIC50 (FAAH [1]): 4.77
SMILES: CC(C)Cc1ccc(C(C)C(=O)N2CCN(c3ccc(F)cc3)CC2)cc1 (centres unmarked) [Compound 22, 1–(4-(4-Fluorophenyl)piperazin-1-yl)-2–(4-isobutylphenyl)propan-1-one]
